What all share (format): physicochemical
A short description of series [1]: dialysis release of curcumin through cellulose membrane. From the text:
Spectrum™ Spectra/Por™ 4 RC Dialysis Membrane Tubing 12,000 to 14,000 Dalton MWCO, cellulose, was used. The release conditions were pH 6.8, Polysorbate 1, 8%, Polysorbate 2, 4%. The pH 6.8 was used as Kiyohiko Sugano, Hirokazu Hamada, Minoru Machida, Hidetoshi Ushio, Kimitoshi Saitoh, Katsuhide Terada. Optimized conditions of bio-mimetic artificial membrane permeation assay. International Journal of Pharmaceutics Volume 228, Issues 1-2, 9 Oct. 2001, Pages 181-188 to simulate the conditions of the intestine, where the absorption of the compound is carried out. Concentrations of 8 and 4 percent of the polysorbates were used to ensure that the solution is above the CMC and the ability to form micelles is not lost, since the analytical method requires that an amount of release medium gets removed and replenish with simple medium (FEUM, volume 1, eleventh edition.).

The nature of series [2]: suspension capacity of polysorbates for curcumin by gravimetry. As to conditions: Tween 80-Tween 20 (1:1). As to the method:
The suspension capacity of the polysorbates for 1,7-bis (4-hydroxy-3-methoxyphenyl)-1,6-heptadien-3,5-dione was evaluated by gravimetry according to P[…] THE UNITED MEXICAN STATES (FEUM), volume 1, eleventh edition.
Stating that at ratios of <100 of Tween 20 or 80, the capacity is not sufficient to suspend the required analyte dose. However, after 160 mg/mL (1:1) the presence of precipitate was found. In FIG. 2, different concentrations of polysorbate (Tween 80-Tween 20 (1:1) are specified in which, when mixed with analyte results in absence or presence of analyte precipitate (FIG. 3).

Series [3] can be described thus: integration of curcumin into aqueous phase with polysorbates (UV/VIS 424 nm). Conditions: 25° C. The procedure:
Three concentrations of polysorbate of different value of HLB were evaluated in a 1:1 ratio for each mixture; With this combination of surfactants, 3 aqueous systems were prepared at concentrations of 0.0052%, 0.04% and 0.113% (% weight/weight). The first corresponds to a concentration below the individual Critical Micellar Concentration (CMC) of each surfactant 2.8529 mg/L, the second corresponds to a concentration slightly above the CMC 6.8439 mg/L and the third corresponds to a concentration well above the CMC, respectively 21.222 mg/L (FIG. 1). […] After 30 minutes of stirring at 500 RPM at 25° C., the suspensions were allowed to stand for 30 minutes and a sample from the supernatant was taken for UV/VIS spectrophotometric evaluation at 424 nm, using the 3 mentioned concentrations as blank.
The ability to form a micellar system of 1,7-bis (4-hydroxy-3-methoxyphenyl)-1,6-heptadien-3,5-dione at different percentages of polysorbates was evaluated.

With `COc1cc(C=CC(=O)CC(=O)C=Cc2ccc(O)c(OC)c2)ccc1O` [curcumin, 1,7-bis (4-hydroxy-3-methoxyphenyl)-1,6-heptadien-3,5-dione], the “concentration released over time” value in series [1] (absence of polysorbates in the medium) is “does not show any increase in concentration over time”; in series [1] (pH 6.8, Polysorbate 1 8%, Polysorbate 2 4%, 0.25 h to 20 h), “increases with time”. Further, the “concentration after which presence of precipitate was found” value in series [2] was > 160000 µg/mL. Moreover, the “curcumin concentration in solution” value came to 2.8529 mg/L in series [3] (polysorbates 0.0052% w/w (below CMC)), 6.8439 mg/L in series [3] (polysorbates 0.04% w/w (slightly above CMC)) and 21.222 mg/L in series [3] (polysorbates 0.113% w/w (well above CMC)).

Source of the values: patent publication US20210060166A1, “Method for the preparation of a 1,7-bis (4-hydroxy-3-methoxyphenyl)-1,6-heptadiene-3,5-dione system in polysorbates for the formation of micelles in an aqueous medium aimed at the properties of the bioavailability of curcuminoids” (priority 2019, published 2021).
